Assay results: ChEMBL document CHEMBL1201862, “PubChem BioAssay data set” (2004)
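Tested at 5 concentrations; 48 h exposure; 96-well plates; endpoints linearly interpolated, else capped at highest concentration. GI50 marks 50% less growth.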 Calls of active or inactive are those of the source. Cut-off read from the data, not from the text of the source: active = GI50 up to about 1.1 µM and inactive = higher.

Columns and labels:
Assay in all cases: NCI-60 cell line screen, 48 h
786-0 = test system: 786-0
MDA-N = test system: MDA-N
OVCAR-5 = test system: OVCAR-5
SK-MEL-2 = test system: SK-MEL-2
SF-268 = test system: SF-268
NCI-H23 = test system: NCI-H23
MOLT-4 = test system: MOLT-4
MDA-MB-231 = test system: MDA-MB-231
DU-145 = test system: DU-145
NCI-H460 = test system: NCI-H460
HT-29 = test system: HT-29
KM12 = test system: KM12
ACHN = test system: ACHN
SF-539 = test system: SF-539
HOP-92 = test system: HOP-92
SW-620 = test system: SW-620
MCF7 = test system: MCF7
SN12C = test system: SN12C
Hs-578T = test system: Hs-578T
UO-31 = test system: UO-31

In the case of `O=C1N[C@H]2c3c(Cl)sc(Cl)c3C(=O)[C@H]2O1`, the GI50 (786-0) is reported as 20.2 µM (inactive), the GI50 (MDA-N) is reported as 24 µM (inactive) and the GI50 (OVCAR-5) is reported as 22.1 µM (inactive). The GI50 (SK-MEL-2) was 24 µM (inactive), the GI50 (SF-268) was 17 µM (inactive) and the GI50 (NCI-H23) was 10.5 µM (inactive). The GI50 (MOLT-4) was 2.01 µM (inactive), the GI50 (MDA-MB-231) was 25.6 µM (inactive) and the GI50 (DU-145) was 23.4 µM (inactive). For the same molecule, the GI50 (NCI-H460) was 8.89 µM (inactive), the GI50 (HT-29) was 4.38 µM (inactive) and the GI50 (KM12) was 39.1 µM (inactive). The GI50 (ACHN) was 13.4 µM (inactive), the GI50 (SF-539) was 9.68 µM (inactive) and the GI50 (HOP-92) was 18.5 µM (inactive). For the same molecule, the GI50 (SW-620) was 2.84 µM (inactive), the GI50 (MCF7) was 39.8 µM (inactive) and the GI50 (SN12C) was 8.71 µM (inactive). For the same molecule, the GI50 (Hs-578T) was 17.9 µM (inactive) and the GI50 (UO-31) was 19.1 µM (inactive).
With `O=C(Nc1ccccc1)c1cc(S(=O)(=O)N2CCNC2=O)c(S)cc1Cl` the GI50 (786-0) was > 100 µM (inactive), the GI50 (MDA-N) was > 100 µM (inactive) and the GI50 (OVCAR-5) was > 100 µM (inactive). For the same molecule, the GI50 (SK-MEL-2) was > 100 µM (inactive), the GI50 (SF-268) was > 100 µM (inactive) and the GI50 (NCI-H23) was > 100 µM (inactive). For the same molecule, the GI50 (MOLT-4) was > 100 µM (inactive), the GI50 (MDA-MB-231) was > 100 µM (inactive) and the GI50 (DU-145) was > 100 µM (inactive). For the same molecule, the GI50 (NCI-H460) was > 100 µM (inactive), the GI50 (HT-29) was > 100 µM (inactive) and the GI50 (KM12) was > 100 µM (inactive). The GI50 (ACHN) was > 100 µM (inactive), the GI50 (SF-539) was > 100 µM (inactive) and the GI50 (HOP-92) was > 100 µM (inactive). For the same molecule, the GI50 (SW-620) was > 100 µM (inactive), the GI50 (MCF7) was > 100 µM (inactive) and the GI50 (SN12C) was > 100 µM (inactive). For the same molecule, the GI50 (Hs-578T) was > 100 µM (inactive) and the GI50 (UO-31) was > 100 µM (inactive).
With `NC(CCC(=O)NC(CSCC1C(=O)Nc2ccccc21)C(=O)NCC(=O)O)C(=O)O` (stereo not given) the GI50 (786-0) was 3.87 µM (inactive), the GI50 (MDA-N) was 6.37 µM (inactive) and the GI50 (OVCAR-5) was 12.4 µM (inactive). The GI50 (SK-MEL-2) was 9.53 µM (inactive), the GI50 (SF-268) was 5.92 µM (inactive) and the GI50 (NCI-H23) was 5.41 µM (inactive). The GI50 (MOLT-4) was 5.35 µM (inactive), the GI50 (MDA-MB-231) was 7.53 µM (inactive) and the GI50 (DU-145) was 6.17 µM (inactive). The GI50 (NCI-H460) was 14.8 µM (inactive), the GI50 (HT-29) was 6.78 µM (inactive) and the GI50 (KM12) was 9.82 µM (inactive). The GI50 (ACHN) was 7.41 µM (inactive), the GI50 (SF-539) was 6 µM (inactive) and the GI50 (HOP-92) was 4.16 µM (inactive). For the same molecule, the GI50 (SW-620) was 4.28 µM (inactive), the GI50 (MCF7) was 3.75 µM (inactive) and the GI50 (SN12C) was 5.86 µM (inactive). The GI50 (Hs-578T) was 48 µM (inactive) and the GI50 (UO-31) was 0.466 µM (active).
`C=C(C)C1Cc2cc(C(C)=O)ccc2O1` (stereo not given) was tested, and the GI50 (786-0) was > 100 µM (inactive), the GI50 (MDA-N) was > 100 µM (inactive) and the GI50 (OVCAR-5) was > 100 µM (inactive). The GI50 (SK-MEL-2) was > 100 µM (inactive), the GI50 (SF-268) was > 100 µM (inactive) and the GI50 (NCI-H23) was > 100 µM (inactive). For the same molecule, the GI50 (MOLT-4) was > 100 µM (inactive), the GI50 (MDA-MB-231) was > 100 µM (inactive) and the GI50 (DU-145) was > 100 µM (inactive). The GI50 (NCI-H460) was > 100 µM (inactive), the GI50 (HT-29) was > 100 µM (inactive) and the GI50 (KM12) was > 100 µM (inactive). The GI50 (ACHN) was > 100 µM (inactive), the GI50 (SF-539) was > 100 µM (inactive) and the GI50 (HOP-92) was > 100 µM (inactive). For the same molecule, the GI50 (SW-620) was > 100 µM (inactive), the GI50 (MCF7) was > 100 µM (inactive) and the GI50 (SN12C) was > 100 µM (inactive). The GI50 (Hs-578T) was > 100 µM (inactive) and the GI50 (UO-31) was > 100 µM (inactive).
In the case of `Cc1ccccc1S(=O)(=O)Nn1cnc2ccc(S(=O)(=O)Nc3ccc(Cl)cc3)cc2c1=O`, the GI50 (786-0) is reported as > 100 µM (inactive), the GI50 (MDA-N) is reported as 53.1 µM (inactive) and the GI50 (OVCAR-5) is reported as > 100 µM (inactive). The GI50 (SK-MEL-2) was 16.6 µM (inactive), the GI50 (SF-268) was > 100 µM (inactive) and the GI50 (NCI-H23) was 60.4 µM (inactive). The GI50 (MOLT-4) was > 100 µM (inactive), the GI50 (MDA-MB-231) was > 100 µM (inactive) and the GI50 (DU-145) was > 100 µM (inactive). The GI50 (NCI-H460) was > 100 µM (inactive), the GI50 (HT-29) was > 100 µM (inactive) and the GI50 (KM12) was 12.4 µM (inactive). For the same molecule, the GI50 (ACHN) was > 100 µM (inactive), the GI50 (SF-539) was > 100 µM (inactive) and the GI50 (HOP-92) was > 100 µM (inactive). For the same molecule, the GI50 (SW-620) was > 100 µM (inactive), the GI50 (MCF7) was > 100 µM (inactive) and the GI50 (SN12C) was > 100 µM (inactive). For the same molecule, the GI50 (Hs-578T) was 28.8 µM (inactive) and the GI50 (UO-31) was 18.1 µM (inactive).
For `O=C(CSc1nnc(-c2ccccn2)s1)N/N=C/c1ccccc1`, the GI50 (786-0) was 76.9 µM (inactive), the GI50 (MDA-N) was > 100 µM (inactive) and the GI50 (OVCAR-5) was > 100 µM (inactive). The GI50 (SK-MEL-2) was > 100 µM (inactive), the GI50 (SF-268) was 48.9 µM (inactive) and the GI50 (NCI-H23) was > 100 µM (inactive). For the same molecule, the GI50 (MOLT-4) was 63.5 µM (inactive), the GI50 (MDA-MB-231) was > 100 µM (inactive) and the GI50 (DU-145) was > 100 µM (inactive). For the same molecule, the GI50 (NCI-H460) was > 100 µM (inactive), the GI50 (HT-29) was > 100 µM (inactive) and the GI50 (KM12) was > 100 µM (inactive). For the same molecule, the GI50 (ACHN) was 89.3 µM (inactive), the GI50 (SF-539) was > 100 µM (inactive) and the GI50 (HOP-92) was 86.7 µM (inactive). For the same molecule, the GI50 (SW-620) was > 100 µM (inactive), the GI50 (MCF7) was > 100 µM (inactive) and the GI50 (SN12C) was > 100 µM (inactive). For the same molecule, the GI50 (Hs-578T) was > 100 µM (inactive) and the GI50 (UO-31) was 39.4 µM (inactive).
In the case of `CCCCNC(=O)OCCN=c1c2ccccc2ccc2ccccc12`, the GI50 (786-0) is reported as > 100 µM (inactive), the GI50 (MDA-N) is reported as > 100 µM (inactive) and the GI50 (OVCAR-5) is reported as > 100 µM (inactive). The GI50 (SK-MEL-2) was > 100 µM (inactive), the GI50 (SF-268) was > 100 µM (inactive) and the GI50 (NCI-H23) was > 100 µM (inactive). The GI50 (MOLT-4) was > 100 µM (inactive), the GI50 (MDA-MB-231) was > 100 µM (inactive) and the GI50 (DU-145) was > 100 µM (inactive). The GI50 (NCI-H460) was > 100 µM (inactive), the GI50 (HT-29) was > 100 µM (inactive) and the GI50 (KM12) was > 100 µM (inactive). The GI50 (ACHN) was > 100 µM (inactive), the GI50 (SF-539) was > 100 µM (inactive) and the GI50 (HOP-92) was > 100 µM (inactive). The GI50 (SW-620) was > 100 µM (inactive), the GI50 (MCF7) was > 100 µM (inactive) and the GI50 (SN12C) was > 100 µM (inactive). The GI50 (Hs-578T) was > 100 µM (inactive) and the GI50 (UO-31) was > 100 µM (inactive).
In the case of `COc1cccc(-c2cc(=O)c3ccc(C)nc3[nH]2)c1`, the GI50 (786-0) is reported as 0.0491 µM (active), the GI50 (MDA-N) is reported as 0.0115 µM (active) and the GI50 (OVCAR-5) is reported as 0.239 µM (active). For the same molecule, the GI50 (SK-MEL-2) was 0.0541 µM (active), the GI50 (SF-268) was 0.0671 µM (active) and the GI50 (NCI-H23) was 0.214 µM (active). The GI50 (MOLT-4) was 0.0741 µM (active), the GI50 (MDA-MB-231) was 0.245 µM (active) and the GI50 (DU-145) was 0.0824 µM (active). For the same molecule, the GI50 (NCI-H460) was 0.0451 µM (active), the GI50 (HT-29) was 0.0331 µM (active) and the GI50 (KM12) was 0.0366 µM (active). The GI50 (ACHN) was 0.0538 µM (active), the GI50 (SF-539) was 0.0388 µM (active) and the GI50 (HOP-92) was 0.0401 µM (active). The GI50 (SW-620) was 0.0383 µM (active), the GI50 (MCF7) was 0.165 µM (active) and the GI50 (SN12C) was 0.122 µM (active). For the same molecule, the GI50 (Hs-578T) was 0.0687 µM (active) and the GI50 (UO-31) was 0.0752 µM (active).
In the case of `c1cc(-c2sc(-c3ccncc3)c(-c3ccncc3)c2-c2ccncc2)ccn1`, the GI50 (786-0) is reported as 14.1 µM (inactive), the GI50 (MDA-N) is reported as 13.8 µM (inactive) and the GI50 (OVCAR-5) is reported as 19.7 µM (inactive). The GI50 (SK-MEL-2) was 20.1 µM (inactive), the GI50 (SF-268) was 15.2 µM (inactive) and the GI50 (NCI-H23) was 16.1 µM (inactive). The GI50 (MOLT-4) was 12 µM (inactive), the GI50 (MDA-MB-231) was 15.1 µM (inactive) and the GI50 (DU-145) was 23 µM (inactive). For the same molecule, the GI50 (NCI-H460) was 10.8 µM (inactive), the GI50 (HT-29) was 13.6 µM (inactive) and the GI50 (KM12) was 26 µM (inactive). For the same molecule, the GI50 (ACHN) was 14.8 µM (inactive), the GI50 (SF-539) was 12.5 µM (inactive) and the GI50 (HOP-92) was 11.4 µM (inactive). For the same molecule, the GI50 (SW-620) was 17 µM (inactive), the GI50 (MCF7) was 19.4 µM (inactive) and the GI50 (SN12C) was 17.6 µM (inactive). For the same molecule, the GI50 (Hs-578T) was 22.3 µM (inactive) and the GI50 (UO-31) was 12.6 µM (inactive).
